The source of these data is PMC7600710, “The Inhibition of Serine/Threonine Protein Phosphatase Type 5 Mediates Cantharidin Toxicity to Control Periplaneta americana (L.)” (Insects, 2020).

The target in series [1] is T1, serine/threonine protein phosphatase type 5 (PaPP5), catalytic domain PaPP5c (Periplaneta americana, UniProt A0A3Q9NNI4).
T1 construct: gene PP5; catalytic domain of PP5 (167-489 amino acids, PP5c), His-tagged, expressed in E. coli; full-length GenBank AZT88974.1
T1 sequence (A0A3Q9NNI4 167-489): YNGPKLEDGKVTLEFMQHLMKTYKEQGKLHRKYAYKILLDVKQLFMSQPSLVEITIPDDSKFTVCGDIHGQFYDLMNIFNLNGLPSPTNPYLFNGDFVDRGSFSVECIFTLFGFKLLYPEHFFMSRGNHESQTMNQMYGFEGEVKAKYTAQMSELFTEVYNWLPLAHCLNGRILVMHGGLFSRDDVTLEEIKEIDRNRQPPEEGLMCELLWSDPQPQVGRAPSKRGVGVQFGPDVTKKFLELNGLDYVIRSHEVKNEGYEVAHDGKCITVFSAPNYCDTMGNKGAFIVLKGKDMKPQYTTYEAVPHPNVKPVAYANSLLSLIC
As to the kind of experiment: DiFMUP fluorescence phosphatase inhibition assay on purified recombinant PaPP5c. It is filed as biochemical.

Substrate in the series “purified protein”: Cc1cc(=O)oc2c(F)c(OP(=O)(O)O)c(F)cc12
As to the kind of experiment: purified protein. The settings on record: Mn2+ (MnCl2 in expression, dialysis and assay buffer).

As usually defined, the IC50 is the midpoint of a concentration-inhibition curve. For the molecule `C[C@@]12C(=O)OC(=O)[C@]1(C)[C@H]1CC[C@@H]2O1` [Cantharidin], in series [1], the IC50 is 390 ± 40 nM.
On the same count and under the same terms, the figure for `O=C1OC(=O)[C@H]2[C@@H]1[C@@H]1CC[C@H]2O1` [Norcantharidin] is 1870 ± 230 nM.

B1: serine/threonine protein phosphatase type 5 (PaPP5), catalytic domain PaPP5c (Periplaneta americana) (protein)
chain: YNGPKLEDGKVTLEFMQHLMKTYKEQGKLHRKYAYKILLDVKQLFMSQPSLVEITIPDDSKFTVCGDIHGQFYDLMNIFNLNGLPSPTNPYLFNGDFVDRGSFSVECIFTLFGFKLLYPEHFFMSRGNHESQTMNQMYGFEGEVKAKYTAQMSELFTEVYNWLPLAHCLNGRILVMHGGLFSRDDVTLEEIKEIDRNRQPPEEGLMCELLWSDPQPQVGRAPSKRGVGVQFGPDVTKKFLELNGLDYVIRSHEVKNEGYEVAHDGKCITVFSAPNYCDTMGNKGAFIVLKGKDMKPQYTTYEAVPHPNVKPVAYANSLLSLIC
In general, Km refers to the concentration of substrate that gives half-maximal velocity. With B1, in the series “purified protein”, the Km was 144.10 ± 9.730 µM.
